In US9765075B2, “Substituted bridged urea analogs as sirtuin modulators” (GLAXOSMITHKLINE LLC, priority 2013, dated 2017):
Like-named read-outs stand apart in the source and are kept apart here.

Target: T1, SIRT1 (Homo sapiens, UniProt Q96EB6)
T1 sequence (Q96EB6 1-747): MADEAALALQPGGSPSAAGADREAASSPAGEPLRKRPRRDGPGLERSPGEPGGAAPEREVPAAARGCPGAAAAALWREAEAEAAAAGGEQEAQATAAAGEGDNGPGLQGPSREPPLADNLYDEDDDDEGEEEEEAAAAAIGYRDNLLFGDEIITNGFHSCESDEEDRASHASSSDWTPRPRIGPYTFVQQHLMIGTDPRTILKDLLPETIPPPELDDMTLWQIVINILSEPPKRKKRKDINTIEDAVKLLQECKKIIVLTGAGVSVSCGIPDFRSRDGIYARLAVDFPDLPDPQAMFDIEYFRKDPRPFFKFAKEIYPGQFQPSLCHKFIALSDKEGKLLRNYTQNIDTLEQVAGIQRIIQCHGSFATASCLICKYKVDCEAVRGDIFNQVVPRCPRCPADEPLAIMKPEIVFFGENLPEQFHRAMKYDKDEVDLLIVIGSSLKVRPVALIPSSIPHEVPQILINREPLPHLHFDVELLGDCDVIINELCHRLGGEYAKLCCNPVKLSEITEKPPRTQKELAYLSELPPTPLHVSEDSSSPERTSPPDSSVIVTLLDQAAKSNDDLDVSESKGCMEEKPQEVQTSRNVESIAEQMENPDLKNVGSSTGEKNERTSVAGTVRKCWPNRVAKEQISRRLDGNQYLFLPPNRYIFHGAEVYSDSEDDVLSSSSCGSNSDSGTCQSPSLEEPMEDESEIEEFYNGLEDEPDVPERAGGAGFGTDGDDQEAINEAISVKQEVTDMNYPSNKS
Experiment: Trp mass spectrometry assay (SIRT1 activation)
Type: biochemical
Conditions: for Emax: percent maximum fold activation of SIRT1, read-out: Tryp % Fold Act
Summary of the method: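 N-His-tagged SIRT1 (10 nM), expressed in E. coli, was incubated with 0.5 μM Ac-RHKK(Ac)W-NH2 peptide and 120 μM NAD+ for 25 min at 25 °C in HEPES pH 7.5 with […]. The reaction was stopped with formic acid and O-acetyl-ADP-ribose or deacetylated peptide was quantified by mass spectrometry. Results are given as EC1.5 and percent maximal activation relative to DMSO control.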

[1] = concentration of test compound that results in 150% activation of SIRT1, Trp peptide substrate
[2] = Trp mass spectrometry assay, EC1.5 = concentration of test compound that results in 150% activation of SIRT1
[3] = Trp mass spectrometry assay, EC1.5 = concentration giving 150% activation of SIRT1

Row | Compound | Tryp AVG EC1.5 (μM) [1] | Emax (Trp peptide substrate) | Emax (Trp mass spectrometry assay) | Tryp AVG EC1.5 (μM) [2] | Tryp AVG EC1.5 (μM) [3]
1 | COc1cc(NC(=O)N2c3nc(-c4cncc(F)c4)ccc3N3CCC2CC3)ncn1 [Example 579] | B (EC1.5 1-25 μM) | ≥ 150% | – | – | –
2 | Cc1nc(NC(=O)N2c3nc(-c4cncc(F)c4)ccc3N3CCC2CC3)sc1C [Example 577] | B (EC1.5 1-25 μM) | ≥ 150% | – | – | –
3 | O=C(Nc1cccnn1)N1c2nc(-c3cccc(C(F)(F)F)c3)ccc2N2CC[C@H]1C2 [Example 11] | – | – | ≥ 150% | – | –
4 | O=C(Nc1ccncn1)N1c2nc(-c3cccc(Cl)c3)ccc2N2CC[C@H]1C2 [Example 110] | – | – | ≥ 150% | A (EC1.5<1 μM) | –
5 | O=C(Nc1ccncn1)N1c2nc(-c3cccc(C(F)(F)F)c3)ccc2N2CCC[C@H]1C2 [Example 29] | – | – | ≥ 150% | – | –
6 | COc1nccc(NC(=O)N2c3nc(-c4cccc(OC(F)(F)F)c4)ccc3N3CC[C@H]2C3)n1 [Example 176] | – | – | ≥ 150% | A (EC1.5<1 μM) | –
7 | O=C(Nc1ccncn1)N1c2nc(-c3cccc(Cl)c3)ccc2N2C[C@@H](O)[C@H]1C2 [Example 684] | – | – | ≥ 150% | – | B (EC1.5 1-25 μM)
8 | O=C(Nc1ccnc(F)c1)N1c2nc(C3CCCC(C(F)(F)F)C3)ccc2N2CC[C@H]1C2 (stereo partly shown) [Example 154] | – | – | ≥ 150% | B (EC1.5 1-25 μM) | –
9 | Cc1nc(NC(=O)N2c3nc(-c4cccc(C(F)(F)F)c4)ccc3N3CC[C@H]2C3)nc2c1CCC2 [Example 91] | – | – | ≥ 150% | B (EC1.5 1-25 μM) | –
10 | O=C(Nc1cccnn1)N1c2nc(C3CCCC(C(F)(F)F)C3)ccc2N2CC[C@H]1C2 (stereo partly shown) [Example 143] | – | – | ≥ 150% | B (EC1.5 1-25 μM) | –
11 | Cc1cc(-c2ccc3c(n2)N(C(=O)Nc2cccc(-c4cnco4)c2)[C@H]2CCN3C2)ccn1 [Example 480] | A (EC1.5<1 μM) | ≥ 150% | – | – | –
12 | O=C(Nc1ccncc1F)N1c2nc(-c3cccc(F)c3)ccc2N2CC[C@H]1C2 [Example 74] | – | – | ≥ 150% | – | –
13 | Cc1nc(NC(=O)N2c3nc(-c4cccc(C(F)(F)F)c4)ccc3N3CC[C@H]2C3)sc1C [Example 48] | – | – | ≥ 150% | – | –
14 | O=C(Nc1ccncc1F)N1c2nc(C3CCCC(C(F)(F)F)C3)ccc2N2CC[C@H]1C2 (stereo partly shown) [Example 148] | – | – | ≥ 150% | B (EC1.5 1-25 μM) | –
15 | O=C(Nc1ccc(F)cn1)N1c2nc(-c3cccc(F)c3)ccc2N2CC[C@H]1C2 [Example 59] | – | – | ≥ 150% | – | –
16 | N#Cc1cccc(-c2ccc3c(n2)N(C(=O)Nc2cnccn2)[C@H]2CCN3C2)c1 [Example 189] | – | – | ≥ 150% | A (EC1.5<1 μM) | –
17 | O=C(Nc1ccc(F)cn1)N1c2nc(-c3ccccc3C(F)(F)F)ccc2N2CC[C@H]1C2 [Example 123] | – | – | < 150% | C (EC1.5>25 μM) | –
18 | Cc1nn(C)c(C)c1-c1ccc2c(n1)N(C(=O)Nc1cccnc1)[C@H]1CCN2C1 [Example 486] | C (EC1.5>25 μM) | ≥ 150% | – | – | –
19 | Cc1ccc(-c2cccc(NC(=O)N3c4nc(-c5cccc(C(F)(F)F)c5)ccc4N4CC[C@H]3C4)c2)cc1C [Example 619] | C (EC1.5>25 μM) | < 150% | – | – | –
20 | O=C(Nc1cccnn1)N1c2nc(-c3cccc(C(F)(F)F)c3)ccc2N2CCC1CC2 [Example 171] | – | – | ≥ 150% | B (EC1.5 1-25 μM) | –
21 | Cc1cc(C)nc(NC(=O)N2c3nc(-c4cccc(Cl)c4)ccc3N3CC[C@H]2C3)c1 [Example 105] | – | – | ≥ 150% | B (EC1.5 1-25 μM) | –
22 | Cc1cnccc1NC(=O)N1c2nc(-c3cccc(C(F)(F)F)c3)ccc2N2CCC[C@H]1C2 [Example 37] | – | – | ≥ 150% | – | –
23 | O=C(Nc1cccnc1)N1c2nc(-c3cccc(C(F)(F)F)c3)ccc2N2CCC1CC2 [Example 485] | A (EC1.5<1 μM) | ≥ 150% | – | – | –
24 | Cc1[nH]ncc1-c1ccc2c(n1)N(C(=O)Nc1cccnc1)[C@H]1CCN2C1 [Example 490] | B (EC1.5 1-25 μM) | ≥ 150% | – | – | –
25 | O=C(NCCCCc1ccccc1)N1c2nc(-c3cccc(C(F)(F)F)c3)ccc2N2CC[C@H]1C2 [Example 600] | B (EC1.5 1-25 μM) | ≥ 150% | – | – | –

Row | Compound | Tryp AVG EC1.5 (μM) [1] | Emax (Trp peptide substrate) | Emax (Trp mass spectrometry assay) | Tryp AVG EC1.5 (μM) [2] | Tryp AVG EC1.5 (μM) [3]
26 | O=C1OC2(c3ccc(O)cc3Oc3cc(O)ccc32)c2ccc(NC(=S)NCc3cn(-c4cccc(NC(=O)N5c6nc(-c7cccc(C(F)(F)F)c7)ccc6N6CC[C@H]5C6)c4)nn3)cc21 [Example 608] | C (EC1.5>25 μM) | < 150% | – | – | –
27 | O=C(Nc1ccncc1)N1c2nc(N3CCCC(C(F)(F)F)C3)ccc2N2CCC[C@H]1C2 (stereo partly shown) [Example 360] | A (EC1.5<1 μM) | ≥ 150% | – | – | –
28 | CC(=O)O[C@H]1CN2C[C@H]1N(C(=O)Nc1ccccn1)c1nc(-c3cccc(C(F)(F)F)c3)ccc12 [Example 634] | – | – | < 150% | – | C (EC1.5>25 μM)
29 | O=C(Nc1cncc(F)c1)N1c2nc(-c3cccc(C(F)(F)F)c3)ccc2N2CCC1CC2 [Example 492] | A (EC1.5<1 μM) | ≥ 150% | – | – | –
30 | C#Cc1ccc(NC(=O)N2c3nc(-c4cccc(C5(C(F)(F)F)N=N5)c4)ccc3N3CC[C@H]2C3)nc1 [Example 803] | – | – | ≥ 150% | – | A (EC1.5<1 μM)
31 | O=C(Nc1ccc(N2CCCCC2)cc1)N1c2nc(-c3cccc(C(F)(F)F)c3)ccc2N2CC[C@H]1C2 [Example 628] | – | – | ≥ 150% | – | B (EC1.5 1-25 μM)
32 | Cc1ccncc1-c1ccc2c(n1)N(C(=O)Nc1ccncn1)[C@H]1CCCN2C1 [Example 518] | C (EC1.5>25 μM) | < 150% | – | – | –
33 | O=C(Nc1cccnc1)N1c2nc(-c3cccc(Cl)c3)ccc2N2C[C@@H](O)[C@H]1C2 [Example 681] | – | – | ≥ 150% | – | B (EC1.5 1-25 μM)
34 | NCCCCCC(=O)NCc1cccc(NC(=O)N2c3nc(-c4cccc(C(F)(F)F)c4)ccc3N3CC[C@H]2C3)c1 [Example 758] | – | – | ≥ 150% | – | A (EC1.5<1 μM)
35 | O=C(Nc1ccc(F)cn1)N1c2nc(-c3cccc(C(F)(F)F)n3)ccc2N2CC[C@H]1C2 [Example 340] | B (EC1.5 1-25 μM) | ≥ 150% | – | – | –
36 | O=C(Nc1nccc(N2CCNCC2)n1)N1c2nc(-c3cccc(C(F)(F)F)c3)ccc2N2CC[C@H]1C2 [Example 745] | – | – | ≥ 150% | – | B (EC1.5 1-25 μM)
37 | COC(=O)c1cccc(NC(=O)N2c3nc(-c4cccc(C(F)(F)F)c4)ccc3N3CC[C@H]2C3)c1 [Example 626] | – | – | ≥ 150% | – | A (EC1.5<1 μM)
38 | O=C(Nc1cccnc1)N1c2nc(-c3cncc(C(F)(F)F)c3)ccc2N2CC[C@H]1C2 [Example 556] | A (EC1.5<1 μM) | ≥ 150% | – | – | –
39 | O=C(Nc1cccc(C(F)(F)F)c1)N1c2nc(-c3cccc(C(F)(F)F)c3)ccc2N2CC[C@H]1C2 [Example 617] | A (EC1.5<1 μM) | ≥ 150% | – | – | –
40 | O=C(Nc1ncc(-c2ccccc2)s1)N1c2nc(-c3cccc(C(F)(F)F)c3)ccc2N2CC[C@H]1C2 [Example 734] | – | – | ≥ 150% | – | B (EC1.5 1-25 μM)
41 | CCc1cccc(C)c1NC(=O)N1c2nc(-c3cccc(C(F)(F)F)c3)ccc2N2CC[C@H]1C2 [Example 69] | – | – | < 150% | – | –
42 | Cn1cc(NC(=O)N2c3nc(-c4cccc(C(F)(F)F)c4)ccc3N3CC[C@H]2C3)cn1 [Example 49] | – | – | ≥ 150% | – | –
43 | Cc1cc(-c2ccc3c(n2)N(C(=O)Nc2cccnc2)[C@H]2CCN3C2)ccn1 [Example 498] | A (EC1.5<1 μM) | ≥ 150% | – | – | –
44 | Cc1nc(NC(=O)N2c3nc(C4CCCC(C(F)(F)F)C4)ccc3N3CC[C@H]2C3)sc1C (stereo partly shown) [Example 149] | – | – | ≥ 150% | B (EC1.5 1-25 μM) | –
45 | O=C(Nc1ccnc(OC[C@H](O)CO)c1)N1c2nc(-c3cccc(Cl)c3)ccc2N2CC[C@H]1C2 [Example 66] | – | – | ≥ 150% | – | –
46 | O=C(Nc1cnc(OC[C@H](O)CO)cn1)N1c2nc(-c3cccc(C(F)(F)F)c3)ccc2N2CC[C@H]1C2 [Example 18] | – | – | ≥ 150% | – | –
47 | O=C(NCCCc1ccccn1)N1c2nc(-c3cccc(C(F)(F)F)c3)ccc2N2CC[C@H]1C2 [Example 673] | – | – | ≥ 150% | – | B (EC1.5 1-25 μM)
48 | O=C(Nc1cnccn1)N1c2nc(-c3ccc(Cl)c(Cl)c3)ccc2N2CC[C@H]1C2 [Example 461] | A (EC1.5<1 μM) | ≥ 150% | – | – | –
49 | O=C(Nc1cccnc1)N1c2nc(-c3cccc(C(F)(F)F)c3)ccc2N2CCC[C@H]1C2 [314 (5)] | A (EC1.5<1 μM) | ≥ 150% | – | – | –
